Experimental data: paper PMC10424187, “Structure-Guided Design and Synthesis of a Pyridazinone Series of Trypanosoma cruzi Proteasome Inhibitors” (Journal of Medicinal Chemistry, 2023)
≈ marks a conversion by molar mass, not a printed value. Where “and” joins values, the source holds several entries; their conditions need not be identical. Equal entries are not always repeated.

Legend:
Brain-blood ratio = type: in vivo; conditions: mouse
P-gp (MDR1) = experiment: in vitro; conditions: dog, MDCK-MDR1
Protocol: MDR1-MDCK Permeability assay
Bi-directional transport was assessed in the presence and absence of Pgp inhibitor GF120918
(Elacridar). MDCK-MDR1 cells (Netherlands Cancer Institute) were maintained in culture
(DMEM, Gibco Cat: 61965-026 supplemented with 1% penicillin/streptomycin, 10% FCS)
until required. For experimentation, cells were seeded onto individual transwell ’Thincerts’
(Greiner, Cat 662610) at a density of 35,000 cells/well. Cells were grown at 37 °C, 5% CO2 for
3 days. On day 4, media was replaced with fresh media and incubated for 1 hour. Prior to
experimentation, cells were incubated with Dulbeccos PBS (Gibco, 14287-080) with/without
Pgp inhibitor, 2 µM GF120918, to ensure inactivation of the Pgp transporter. Cells were then
dosed apically and basolaterally (1 µM test compound, 10 µM Lucifer Yellow (1% DMSO)
with/without 2 µM GF120918) for 1 hour. 100 mL of solution from donor and receiver wells
was removed to a 96 well deepwell plate alongside 100 mL of dosing solution. 150 µL of
acetonitrile containing internal standard (e.g., 100 ng/mL Sulfadimethoxine) was then added
to all samples prior to analysis by LC-MS/MS. Amprenavir (positive control) were run […]
a Lucifer Yellow standard curve for fluorescence determination of Lucifer Yellow
concentrations. Papp (apparent permeability) values were calculated for each compound for […]
efflux ratios (ER) determined using the following equations: […]

[1] = test system: intracellular T. cruzi X10/7 A1 amastigotes
Human 20S proteasome = Human 20S proteasome (Homo sapiens, UniProt P28074+P49721); experiment: human proteasome assay (chymotrypsin-like activity, Suc-LLVY-Rho-110-DPro)
Protocol: T. cruzi and human proteasome assays
(§1) The T. cruzi proteasome was partially purified as described in the above reference and Human
(§2) 20S proteasome was purchased from Boston Biochem (now R&D Systems, catalogue number
(§3) a Tecan Fluent to titrate over 11 points in Labcyte Echo-compatible Greiner Bio-One 384 well
(§4) polypropylene microplates. Subsequently, 100 nl of test compound titrations were transferred
(§5) to black Greiner Bio-One low volume 384 well microplates using a Labcyte Echo acoustic
(§6) 50 mM HEPES pH 7.5, 150 mM sodium chloride, 5% Glycerol, 1 mM dithiothreitol, 1 mM
(§7) CHAPS in deionised, filtered water (all chemicals purchased from Sigma Aldrich). Human 20S
(§8) These enzyme solutions were prepared immediately prior to assay initiation and stored at 4 °C
(§9) To monitor the Chymotrypsin-like activity of the T. cruzi and Human 20S proteasome proteins
(§10) a self-quenched, Rhodamine 110-labelled peptide with the sequence Suc-LLVY-Rho-110-
(§11) DPro was used (prepared by Cambridge Research Biochemicals. Suc is succinyl, while DPro
(§12) refers to ᴅ-proline). The peptide was initially prepared from solid as a 10 mM solution in 100%
(§13) DMSO and stored at -20 °C. Prior to use in the assay, an aliquot was thawed at room
(§14) to twofold Km. For use with the Human 20S proteasome, the Suc-LLVY-Rho-110-DPro
(§15) peptide was diluted in assay buffer to a concentration equivalent to twofold Km, which for this
(§16) enzyme was 2 μM. The peptide solutions were protected from light and stored at 4 °C before
(§17) A Multidrop Micro (Thermo Fisher), using a low volume dispense cassette, was used to add
(§18) the assay solutions to the test compounds in the low volume 384-well microplates. Prior to
(§19) addition of proteasome solution, 5 μl of assay buffer was added to one column (containing 100
(§20) nl, 100% DMSO) to act as no enzyme control to mimic full inhibition. Subsequently, 5 μl of
(§21) proteasome solution (either T. cruzi or Human 20S) was added to all wells on the test
(§22) microplate apart from the column containing 5 μl assay buffer. The microplate was then spun
(§23) using a suitable bench top centrifuge for 1 minute at 1000 rpm, before incubation at room
(§24) Following the initial incubation, 5 μl of substrate solution was then added to all wells on the
(§25) test microplate using a Multidrop Micro equipped with a discrete low volume dispense cassette.
(§26) The test microplates were then spun for 10 seconds at 1000 rpm before being rapidly moved to
(§27) a multi-mode microplate reader, capable of monitoring fluorescence intensity. The microplate
(§28) reader used for these studies was a Tecan M1000 Pro, equipped with quad monochromators.
(§29) 530 ± 5 nm. A series of fluorescence intensity measurements were taken every 30 seconds for
(§30) Subsequently, the fluorescence intensity measurements (relative fluorescence units, RFU) were
(§31) fit to a simple linear regression model (y = A + Bx, where y refers to the fluorescence intensity
(§32) and x refers to the time in seconds) to determine the initial rate of reaction. The initial rate for
(§33) every compound concentration tested was then fit a 4-parameter logistic model: y = (A + (B -
(§34) A)) / (1 + (x / C)D), where y refers to the assay response, x refers to the inhibitor concentration,
(§35) A and B are the range values (minimum and maximum, respectively), C is the IC50 value and
(§36) D is the slope. Potency values were then reported as pIC50, which is the negative log of the
(§37) IC50 (on a molar scale). Data analysis was automated and carried out using the ActivityBase

T. cruzi [2] = experiment: Chronic mouse efficacy model of Chagas disease; type: in vivo, Balb/c mice; conditions: 5 days at 50 mg/kg bid
Protocol: All regulated procedures on living animals were carried out under the authority of a project license issued by the Home Office under the Animals (Scientific Procedures) Act 1986, as amended in 2012 (and in compliance with EU Directive EU/2010/63). Infected animals had access to food and water ad libitum and were housed under a 12-hour light/dark photoperiod.
Animals used in these experiments were female NMRI and Balb/c mice (Harlan, UK). […]
In vivo Mouse Efficacy Studies.
The T. cruzi chronic efficacy study was run in Balb/c mice as previously described:
M.D. Lewis, A. Fortes Francisco, M.C. Taylor, J.M. Kelly, A new experimental model for assessing drug efficacy against Trypanosoma cruzi infection based on highly sensitive in vivo imaging, J. Biomol. Screen 20 (1) (2015) 36–43

FaSSIF solubility = conditions: fasted state simulated intestinal fluid
Protocol: undissolved material using a proprietary filter (Millipore Multiscreen HTS filter, 96-well
format). Samples were then drawn through the filter using vacuum. The filtrate from the above
was analysed for dissolved drug compound using a truncated UHPLC methodology. A Shimadzu Nexera X2 UHPLC system was used, with a reversed-phase column and a simple
formic acid gradient elution. The UHPLC parameters are shown below:
Mobile phase component A HPLC water plus 0.1% formic acid
Mobile phase component B HPLC acetonitrile plus 0.1% formic acid
Re-equilibration time: 0.6 min
Autosampler temperature: 25°C
Column: Hypersil Gold, C18 1.9 µm, 50 x 2.1 mm
A calibration solution was prepared in the following way: The same 10 mM solution used to
was then diluted with 50:50 acetonitrile:water to give a 50 µM solution. Aliquots (0.2, 2.0 and
5.0 µL) of this 50 µM solution were then injected onto the UHPLC system and the areas of the
resultant peaks integrated to produce a calibration line. Aliquots of the test sample filtrate (0.4
and 5.0 µL) were then injected onto the UHPLC system and the resultant peak areas for any
peaks corresponding to the test compound determined and quantified using the calibration line
(the injection volume that gave a peak area closest to the calibrated range was used for

Brain tissue binding = type: in vitro ADME; conditions: read-out: brain tissue free fraction
[3] = In vivo blood exposure / pharmacokinetics in mice; set-up: species or system mouse
Protocol: Blood samples (10 μL) where taken
and 24 hours post dose samples for I.V. leg only) and mixed with two volumes of deionized water (20 μL). After suitable sample preparation, the concentration of test compound in the whole blood from treated mice was determined by UPLC-MS/MS using a Quattro Premier XE (Waters, USA). Pharmacokinetic parameters were derived from the mean blood concentration time curve using PK solutions software v 2.0 (Summit Research Services, USA).

T. cruzi [4] = experiment: T. cruzi in vitro washout assay; type: cell-based, Trypanosoma cruzi; conditions: 8 days of treatment, 50-fold EC50
From the text: T. cruzi in vitro washout assay
This assay was run as previously reported:
Marco M.; Miles T.J.; Naylor C.; Osuna-Cabello M.; Paterson C.; Read K.D.; Pinto E.G.; Riley
J.; Scullion P.; Shishikura Y.; Simeons F.; Stojanovski L.; Svensen N.; Thomas J.; Wyatt P.G.;
disubstituted piperazines for the treatment of Chagas disease. […]

[5] = Kinetic solubility by chemiluminescent nitrogen detection (CLND); type: physicochemical
T. cruzi proteasome = T. cruzi proteasome (Trypanosoma cruzi, UniProt V5BU39+V5C017); experiment: T. cruzi proteasome assay (chymotrypsin-like activity, Suc-LLVY-Rho-110-DPro)
Protocol: T. cruzi and human proteasome assays
as §1, §2, §3, §4, §5, §6, §7, §8, §9, §10, §11, §12, §13, §14, §15, §16, §17, §18, §19, §20, §21, §22, §23, §24, §25, §26, §27, §28, §29, §30, §31, §32, §33, §34, §35, §36, §37

[6] = Mouse microsomal intrinsic clearance; type: in vitro ADME; conditions: mouse liver microsomes, scaling 52.5 mg microsomal protein/g liver
Protocol: Mouse microsomal intrinsic clearance.
This assay was conducted as previously described:
J.; Reid, I. H.; Hill, A. P.;
were prepared by adding a volume (5 µL) of the 10 mM solution to a volume (195 µL) of […]

Chain of T. cruzi proteasome (V5BU39 entry or part of it): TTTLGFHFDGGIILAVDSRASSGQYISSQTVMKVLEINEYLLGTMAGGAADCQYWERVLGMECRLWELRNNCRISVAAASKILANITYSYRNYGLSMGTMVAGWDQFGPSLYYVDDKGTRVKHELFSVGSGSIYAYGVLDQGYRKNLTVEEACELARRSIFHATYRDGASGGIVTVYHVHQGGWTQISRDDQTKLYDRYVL
Chain of T. cruzi proteasome (V5C017 entry or part of it): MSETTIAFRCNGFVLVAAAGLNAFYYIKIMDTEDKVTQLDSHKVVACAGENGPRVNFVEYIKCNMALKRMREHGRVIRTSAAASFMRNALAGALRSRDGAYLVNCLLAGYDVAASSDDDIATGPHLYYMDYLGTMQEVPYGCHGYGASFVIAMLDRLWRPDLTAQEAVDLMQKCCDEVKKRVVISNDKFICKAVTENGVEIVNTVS

O=C(Nc1ccc(F)c(-c2cn3nc(N4CCOCC4)cnc3n2)c1)N1CCCC1 [Compound 4]
Kp (Brain-blood ratio): 0.07 | efflux ratio at 1 h, 1 µM (P-gp (MDR1)): 22 | EC50 [1]: 100 nM and 126 nM and 63.1 nM | Emax [1]: 95% and 90% and 93% and 98% and 99% and 96% and 92% and 100% | IC50 (Human 20S proteasome; Hs Prot pIC50, individual replicate): 25100 nM and 79400 nM | Hs Prot Hill Slope (Human 20S proteasome; individual replicate): 1.7 and 0.9 and 1.3 | Hs Prot Max Response (%) (Human 20S proteasome; individual replicate): 35% and 21% and 42% and 24% and 10% and 50% and 28% and 48% and 38% and 29% and 47% and 41% and 54% and 44% and 52% and 49% and 40% | Hs Prot pIC50 (Human 20S proteasome; individual replicate): < 4 | Hs Prot pIC50 (Human 20S proteasome; mean of at least three independent replicates): <4 | effect on parasite levels (T. cruzi [2]): no visible effect on parasite levels | FaSSIF solubility (FaSSIF solubility): 32 µM | fraction unbound (Brain tissue binding): 0.043 | predicted brain exposure relative to T. cruzi EC99 ([3]; from blood exposure in chronic efficacy model, brain-blood ratio and brain free fraction): well below T. cruzi EC99 | time blood exposure above T. cruzi EC99 ([3]; mouse VL efficacy study, 50 mg/kg, also when corrected for plasma protein binding): > 8 h | parasites relapsing on day (T. cruzi [4]): 34 days | aqueous solubility [5]: 59 µM (≈ 24.3 µg/mL) | IC50 (T. cruzi proteasome; Tc Prot pIC50, individual replicate): < 1.58 nM and 3.98 nM and 7.94 nM and 1.58 nM and 2.51 nM and 12.6 nM and 5.01 nM and 10 nM | Tc Prot Hill Slope (T. cruzi proteasome; individual replicate): 1.0 and 0.8 and 0.7 and 0.9 and 0.75 and 1.1 and 0.95 | Tc Prot Max Response (%) (T. cruzi proteasome; individual replicate): 89% and 88% and 85% and 90% and 87% | Emax (T. cruzi proteasome; read-out: Tc Prot Max Response (%), individual replicate): 91% | Mouse CLi [6]: <0.5 mL/min/g
